Measured values published in patent publication US12459932B2, “KIF18A inhibitors” (AMGEN INC., priority 2018, dated 2025).

Target: T1, Recombinant human KIF18A (1-467 His-tagged) (Homo sapiens, UniProt Q8NI77)
T1 construct: Recombinant human KIF18A (1-467 His-tagged) protein; His
Assay: KIF18A Enzyme Assay: microtubule-stimulated ATPase activity (ADP-Glo)
Assay type: biochemical
Details: 30 nM KIF18A, 30 μg/mL pig microtubules, ATP 75 μM (Km), ADP-Glo luminescence
Procedure: KIF18A Enzyme Assay: Microtubule-stimulated ATPase activity assay is used to measure KIF18A enzyme activity after treatment with compound. Compounds were 2-fold serially diluted in DMSO (Sigma Inc) over 22-point concentration range. […] The assay measures ADP formed from the ATPase reaction. […] Read luminescence using EnVision microplate reader with ultra-luminescence module (Perkin Elmer Inc). Concentration-response curve-fitting and IC50 determination was performed using Genedata Screener Software (Standard 15.0.1, Genedata Inc) with a four-parameter logistic regression fit model.

T1 sequence (Q8NI77 1-467): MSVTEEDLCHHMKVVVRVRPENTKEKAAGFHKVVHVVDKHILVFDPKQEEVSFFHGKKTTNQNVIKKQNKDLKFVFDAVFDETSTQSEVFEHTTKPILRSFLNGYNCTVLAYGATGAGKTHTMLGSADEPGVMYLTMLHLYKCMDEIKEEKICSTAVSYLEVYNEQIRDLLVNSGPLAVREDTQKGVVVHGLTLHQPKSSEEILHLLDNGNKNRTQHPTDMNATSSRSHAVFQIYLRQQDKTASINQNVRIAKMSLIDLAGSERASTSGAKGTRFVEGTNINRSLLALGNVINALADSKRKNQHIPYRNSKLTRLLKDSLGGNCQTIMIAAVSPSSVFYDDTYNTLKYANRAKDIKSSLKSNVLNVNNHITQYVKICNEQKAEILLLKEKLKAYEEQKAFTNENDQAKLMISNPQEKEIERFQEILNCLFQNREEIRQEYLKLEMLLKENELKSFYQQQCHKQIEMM
T1 sequence (P02550 whole entry partner): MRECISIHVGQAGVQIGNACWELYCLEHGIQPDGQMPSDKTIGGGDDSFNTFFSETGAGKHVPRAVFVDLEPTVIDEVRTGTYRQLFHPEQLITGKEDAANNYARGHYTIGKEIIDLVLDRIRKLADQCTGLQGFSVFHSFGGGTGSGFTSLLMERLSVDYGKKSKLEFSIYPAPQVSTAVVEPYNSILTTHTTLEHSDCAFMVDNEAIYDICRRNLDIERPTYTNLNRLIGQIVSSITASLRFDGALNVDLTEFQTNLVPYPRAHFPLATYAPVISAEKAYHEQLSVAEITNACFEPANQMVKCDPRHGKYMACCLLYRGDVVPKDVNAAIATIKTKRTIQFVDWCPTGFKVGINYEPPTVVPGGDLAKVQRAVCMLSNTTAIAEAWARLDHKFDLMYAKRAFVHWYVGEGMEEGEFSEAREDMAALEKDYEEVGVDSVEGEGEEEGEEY
T1 sequence (P02554 whole entry partner): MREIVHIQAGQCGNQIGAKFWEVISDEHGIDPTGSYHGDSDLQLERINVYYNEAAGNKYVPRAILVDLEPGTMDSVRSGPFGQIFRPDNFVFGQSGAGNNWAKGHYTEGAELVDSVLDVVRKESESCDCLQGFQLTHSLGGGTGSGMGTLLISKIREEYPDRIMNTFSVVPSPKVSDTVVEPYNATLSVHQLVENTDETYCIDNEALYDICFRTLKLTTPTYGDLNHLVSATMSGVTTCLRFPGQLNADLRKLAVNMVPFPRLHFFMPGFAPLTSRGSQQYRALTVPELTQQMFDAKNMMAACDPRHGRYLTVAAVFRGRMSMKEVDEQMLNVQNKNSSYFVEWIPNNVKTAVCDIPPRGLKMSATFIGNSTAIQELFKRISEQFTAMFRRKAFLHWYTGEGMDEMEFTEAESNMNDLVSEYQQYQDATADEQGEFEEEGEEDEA

Row | Structure (SMILES) | IC50 [nM]
1 | CC(C)(C)NS(=O)(=O)c1ccc(C(=O)Nc2cccc(NC3(CO)COC3)n2)c(N2CCC3(CC2)CC3)c1 [Example 3-4, 4-(N-(tert-Butyl)sulfamoyl)-N-(6-((3-(hydroxymethyl)oxetan-3-yl)amino)pyridin-2-yl)-2-(6-azaspiro[2.5]octan-6-yl)benzamide] | 149
2 | CC1(O)CCN(c2cccc(NC(=O)c3ccc(NS(=O)(=O)C4(C)CC4)cc3N3CCC4(CC3)CC4)n2)CC1 [Example 3-8, N-(6-(4-Hydroxy-4-methylpiperidin-1-yl)pyridin-2-yl)-4-((1-methylcyclopropane)-1-sulfonamido)-2-(6-azaspiro[2.5]octan-6-yl)benzamide] | 243
3 | CC1(S(=O)(=O)Nc2ccc(C(=O)Nc3cccc(N4CCC[C@](C)(O)C4)n3)c(N3CCC4(CC3)CC4)c2)CC1 [Example 3-9, (S)-N-(6-(3-Hydroxy-3-methylpiperidin-1-yl)pyridin-2-yl)-4-((1-methylcyclopropane)-1-sulfonamido)-2-(6-azaspiro[2.5]octan-6-yl)benzamide] | 175
4 | CC1(S(=O)(=O)Nc2ccc(C(=O)Nc3cccc(N4CCC[C@@](C)(O)C4)n3)c(N3CCC4(CC3)CC4)c2)CC1 [Example 3-10, (R)-N-(6-(3-Hydroxy-3-methylpiperidin-1-yl)pyridin-2-yl)-4-((1-methylcyclopropane)-1-sulfonamido)-2-(6-azaspiro[2.5]octan-6-yl)benzamide] | 143
5 | CC1(F)CCN(c2cccc(NC(=O)c3ccc(NS(=O)(=O)C4(C)CC4)cc3N3CCC4(CC3)CC4)n2)CC1 [Example 3-13, N-(6-(4-Fluoro-4-methylpiperidin-1-yl)pyridin-2-yl)-4-((1-methylcyclopropane)-1-sulfonamido)-2-(6-azaspiro[2.5]octan-6-yl)benzamide] | 373

Stronger by IC50, values ahead:

Row | IC50 [nM] | Structure (SMILES)
6 | 86 | CC1(S(=O)(=O)Nc2ccc(C(=O)Nc3cccc(N4CCC[C@@H](CO)C4)n3)c(N3CCC4(CC3)CC4)c2)CC1 [Example 3-6, (R)-N-(6-(3-(Hydroxymethyl)piperidin-1-yl)pyridin-2-yl)-4-((1-methylcyclopropane)-1-sulfonamido)-2-(6-azaspiro[2.5]octan-6-yl)benzamide]
7 | 81 | CC1(S(=O)(=O)Nc2ccc(C(=O)Nc3cccc(N4CCO[C@H](CO)C4)n3)c(N3CCC4(CC3)CC4)c2)CC1 [Example 3-12, (S)-N-(6-(2-(Hydroxymethyl)morpholino)pyridin-2-yl)-4-((1-methylcyclopropane)-1-sulfonamido)-2-(6-azaspiro[2.5]octan-6-yl)benzamide]
8 | 73 | CC1(S(=O)(=O)Nc2ccc(C(=O)Nc3cccc(N4CCO[C@@H](CO)C4)n3)c(N3CCC4(CC3)CC4)c2)CC1 [Example 3-11, (R)-N-(6-(2-(Hydroxymethyl)morpholino)pyridin-2-yl)-4-((1-methylcyclopropane)-1-sulfonamido)-2-(6-azaspiro[2.5]octan-6-yl)benzamide]
9 | 65 | CC1(S(=O)(=O)Nc2ccc(C(=O)Nc3cccc(N4CCC[C@H](CO)C4)n3)c(N3CCC4(CC3)CC4)c2)CC1 [Example 3-7, (S)-N-(6-(3-(Hydroxymethyl)piperidin-1-yl)pyridin-2-yl)-4-((1-methylcyclopropane)-1-sulfonamido)-2-(6-azaspiro[2.5]octan-6-yl)benzamide]
10 | 45 | CC1(S(=O)(=O)Nc2ccc(C(=O)Nc3cccc(N4CCC(F)(F)C4)n3)c(N3CCC4(CC3)CC4)c2)CC1 [Example 3-5, N-(6-(3,3-Difluoropyrrolidin-1-yl)pyridin-2-yl)-4-((1-methylcyclopropane)-1-sulfonamido)-2-(6-azaspiro[2.5]octan-6-yl)benzamide]
11 | 38 | CC1(S(=O)(=O)Nc2ccc(C(=O)Nc3cccc(N4CCCC(F)(F)C4)n3)c(N3CCC4(CC3)CC4)c2)CC1 [Example 3-14, N-(6-(3,3-Difluoropiperidin-1-yl)pyridin-2-yl)-4-((1-methylcyclopropane)-1-sulfonamido)-2-(6-azaspiro[2.5]octan-6-yl)benzamide]
